This experiment has as its system retinol-producing strains (Yarrowia lipolytica). Put plainly: Flask test of retinol production of retinol-producing strains with antioxidants in the medium. The format is cell-based. The settings on record: antioxidant added to YLMM2 medium at 0.01% to 0.05%; 30° C., 200 rpm; 48 hour culture; HPLC. As for the experimental part: A flask test was performed to compare the degree of retinol production of retinol-producing strains according to the presence and absence, and the type of antioxidants. Each retinol production platform strain was inoculated in a 250 ml corner-baffled flask containing 25 ml of Yarrowia lipolytica minimal media2 (YLMM2) at an initial OD of 4, and 4 types of antioxidants, 3,5-Di-tert-4-butylhydroxytoluene (BHT), propyl gallate (PG), vitamin C, and glutathione (GSH), were added to the medium at a concentration of 0.01% to 0.05%, respectively. Culturing was carried out under conditions of 30° C. and 200 rpm.
To evaluate the degree of growth according to culture time, the OD value at a wavelength of 600 nm was measured using a spectrophotometer, and the method of measuring retinol concentrations is as follows; After the culture was completed, 1 ml of the culture medium was centrifuged to remove the supernatant, then 0.5 ml of dimethyl sulfoxide (DMSO, Sigma) was added and the cells were disrupted by agitation at 55° C. for 10 minutes (agitation; 2,000 rpm). Next, 0.5 ml of acetone (Sigma) containing 4% BHT was added and agitated (2,000 rpm) for 15 min at 45° C., and retinoids extracted in this manner were quantitatively analyzed using HPLC equipment.
Considering that the sugar consumption rate may vary depending on the type of antioxidants which were added to the medium, BHT, PG, vitamin C, and GSH were each cultured for 48 hours. After 48 hour-incubation, retinal and retinol were extracted and quantified.
Take `Cc1cc(C(C)(C)C)c(O)c(C(C)(C)C)c1` [BHT, 3,5-di-tert-4-butylhydroxytoluene]: the “retinol concentration increase as compared to the control group without antioxidants” value is “up to 1.89 times”.

For the compound `N[C@@H](CCC(=O)N[C@@H](CS)C(=O)NCC(=O)O)C(=O)O` [GSH, glutathione], the “retinol concentration increase as compared to the control group without antioxidants” value is at most 1.21 times.

Turning to `CCCOC(=O)c1cc(O)c(O)c(O)c1` [PG, propyl gallate], the “retinol concentration increase as compared to the control group without antioxidants” value is recorded as at most 1.82 times.

As to `O=C1O[C@H]([C@@H](O)CO)C(O)=C1O` [vitamin C, ascorbic acid], the “retinol concentration increase as compared to the control group without antioxidants” value is at most 1.44 times.

The record behind these values is patent US20250197914A1, “MICROBIAL MEDIUM COMPOSITION FOR PRODUCING RETINOL, COMPRISING ANTI-OXIDANT, AND USE THEREOF” (CJ CHEILJEDANG CORPORATION, priority 2022, published 2025).
